Measurements taken from patent US20190388381A1, “METHODS OF INHIBITING CISD PROTEIN-PLP COMPLEX FORMATION” (priority 2018, published 2019).
Entries after “also recorded” stand apart in the source; their conditions may differ.

What was measured:
mitoNEET [1] = biological target: T1, mitoNEET (Homo sapiens, UniProt Q9NZ45); assay: Thermal shift analysis (SYPRO Orange) of mitoNEET; type: binding; details: changing concentrations of nucleotide
T1 sequence (Q9NZ45 33-108 limits assumed): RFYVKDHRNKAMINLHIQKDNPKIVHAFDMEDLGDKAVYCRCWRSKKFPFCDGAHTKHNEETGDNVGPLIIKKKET

mitoNEET [2] = biological target: T1, mitoNEET; assay: Competitive spectrophotometric assay of mitoNEET⋅PLP complex formation; type: biochemical; details: for Effect on mitoNEET⋅PLP complex formation: signal at λ=380 nm (unbound PLP) with increasing compound concentration
PLP⋅mitoNEET complex = biological target: T2, PLP⋅mitoNEET complex (Homo sapiens, UniProt Q9NZ45); assay: Reaction of candidate amino acid substrates with the PLP⋅mitoNEET complex, followed by spectrophotometry; type: biochemical; details: internal aldimine at λ=410 nm, signal at λ=330 nm, over 5000 sec
T2 sequence (Q9NZ45 33-108 limits assumed): T1 sequence (Q9NZ45 33-108 limits assumed)
Source text: After PLP binding to the protein, the next step in many PLP-catalyzed enzymatic reactions is the formation of an external aldimine with one of several amino acid substrate such as cysteine, serine, alanine, or aspartate. Subsequently, an amazing diversity of chemistry can occur using this versatile coenzyme including transamination, racemization, and α,β-elimination. L-cysteine was selected as a first candidate substrate considering the previously shown reactivity of mitoNEET cysteine residues in the formation of mixed disulfide bonds. L-cysteine (0.5 mM) was added to the PLP⋅mitoNEET complex and the reaction was followed by spectrophotometry over 5000 sec.

mitoNEET [3] = biological target: T3, mitoNEET (Homo sapiens, UniProt Q9NZ45); assay: Proteomic analysis of mitoNEET lysine residues modified by PLP; type: biochemical; details: 2.0 molar equivalents of PLP, 20 minutes, PBS pH 7.5
T3 construct: Considering the presence of ten lysine residues in the soluble portion of mitoNEET
T3 sequence (Q9NZ45 32-108 limits assumed): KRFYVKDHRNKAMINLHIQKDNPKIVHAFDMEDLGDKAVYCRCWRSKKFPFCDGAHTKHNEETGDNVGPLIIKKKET
Protocol: Considering the presence of ten lysine residues in the soluble portion of mitoNEET, non-specific binding of PLP was a concern (PDB code 3EW0). Therefore, mitoNEET was treated with 2.0 molar equivalents of PLP over 20 minutes in phosphate buffered saline (PBS) at pH 7.5 and the reacted protein was analyzed by proteomics. […] Next, the product(s) were degraded by tryptic digest, separated by liquid chromatography, analyzed by tandem mass spectrometry, and the data deconvoluted by proteomic analysis (courtesy of Indiana University Medical School Proteomics Core).

mitoNEET [4] = biological target: T1, mitoNEET; assay: Spectroscopic kinetics of modification of mitoNEET by PLP; type: biochemical; details: in contrast to PLP; data not shown
Source text: The initial discovery was made that CISD proteins bind PLP at a specific lysine residue that is in close proximity to the [2Fe-2S] cluster. PLP modifies the active site lysine residue of PLP-dependent enzymes forming the internal aldimine. In mitoNEET, PLP selectively modifies Lys55. While Lys55 was hypothesized to play a role in the reduction potential and stability of the [2Fe-2S] cluster in mitoNEET, its role as the binding site of PLP is novel to this work. MitoNEET was previously not known or classified as a PLP-dependent enzyme. Referring to FIG. 2, the formation of the mitoNEET⋅PLP and NAF-1⋅PLP complexes can be followed spectroscopically by the accumulation of a signal at λ=435 nm which is consistent with the ketoenamine tautomer and the attenuation of the signal at λ=380 nm which signifies the free PLP molecule. Concurrently with the increase of signal at λ=435 nm, an increase at λ=280 nm is also observed, but the chemical species contributing to this signal is currently unknown. In contrast to PLP, no reactivity of mitoNEET towards the non-phosphorylated pyridoxal (data not shown) was observed. […] An analogous lysine (Lys78) on NAF-1 is the analogous site for that protein.

`Nc1ncnc2c1ncn2[C@@H]1O[C@H](COP(=O)(O)OP(=O)(O)O)[C@@H](O)[C@H]1O` [ADP, adenosine diphosphate] was tested, and the “Effect on mitoNEET thermal stability” value (mitoNEET [1]) was “do not significantly affect the thermal shift profile”.
For `Nc1ncnc2c1ncn2[C@@H]1O[C@H](COP(=O)(O)O)[C@@H](O)[C@H]1O` [AMP, adenosine monophosphate], the “Effect on mitoNEET thermal stability” value (mitoNEET [1]) was “do not significantly affect the thermal shift profile” and the “Effect on mitoNEET⋅PLP complex formation” value (mitoNEET [2]) was “no binding at Lys55; also recorded: does not correspond with an increase in the signal at λ=380 nm”.
In the case of `N[C@H](CS)C(=O)O` [D-cysteine], the “Reaction with the PLP⋅mitoNEET complex” value (PLP⋅mitoNEET complex) is reported as “also reacts with the PLP⋅mitoNEET complex (albeit at a slower rate)”.
With `N[C@@H](CS)C(=O)O` [L-cysteine] the “Reaction with the PLP⋅mitoNEET complex” value (PLP⋅mitoNEET complex) was “degradation of the internal aldimine”.
With `N[C@@H](COP(=O)(O)O)C(=O)O` [L-phosphoserine] the “Reaction with the PLP⋅mitoNEET complex” value (PLP⋅mitoNEET complex) was “did not react”.
With `N[C@@H](CO)C(=O)O` [L-serine] the “Reaction with the PLP⋅mitoNEET complex” value (PLP⋅mitoNEET complex) was “did not react”.
For `Cc1ncc(COP(=O)(O)O)c(C=O)c1O` [PLP, pyridoxal-5′-phosphate], the “Percent Modified, lysine residue position 55” value (mitoNEET [3]) was 48.1%, the “Percent Modified, lysine residue position 68” value (mitoNEET [3]) was 7.6% and the “Percent Modified, lysine residue position 79” value (mitoNEET [3]) was 6.1%. The “Percent Modified, lysine residue position 89” value (mitoNEET [3]) was 2.5% and the “Percent Modified, lysine residue position 104” value (mitoNEET [3]) was 1.5%.
For `NS(=O)(=O)c1cc(C(=O)O)c(NCc2ccco2)cc1Cl` [furosemide], the “Formation of mitoNEET⋅PLP complex after pre-treatment” value (mitoNEET [2]; signal at 435 nm, pre-treatment with compound) was “lack of formation of mitoNEET⋅PLP complex”, the “Effect on mitoNEET⋅PLP complex formation” value (mitoNEET [2]) was “competitive binding; also recorded: prohibits the mitoNEET⋅PLP complex formation” and the “Effect on mitoNEET⋅PLP complex formation” value (mitoNEET [2]; listed as Furosemide) was “block the formation of the mitoNEET⋅PLP complex in a concentration dependent manner”.
For `Cc1ncc(CO)c(C=O)c1O` [pyridoxal], the “Reactivity of mitoNEET towards compound” value (mitoNEET [4]) was “no reactivity”.
